Each block holds one molecule with its values, some of them ahead of it.
How the values were obtained:
[1] = tested on: oophoroma cell line (A2780); assay: Test for cell growth inhibitory activity against A2780 (epithelial ovarian cancer); type: cell-based; settings: cultured 72 hr, sulforhodamine B
Procedure: An experiment was performed according to the method described in Ahmed SA et al., 1994. Journal of Immunological Methods 170: 211-224, or Boyed M R et al., 1989.
(§1) A cell suspension of oophoroma cell line (A2780) prepared to 2 to 3×10^3/well was added to a well microplate, a given amount of a test substance (0, 1.25, 2.5, 5, 10, 12.5, 20, 25, 50, 100 μM) was added to the culture medium, and the mixture was cultured for 72 hr. Thereafter, 0.4% sulforhodamine B was added to each well, and the absorbance at 570 nm was measured by a microplate reader. The cell growth inhibition ratio was calculated from the above-mentioned formula, and IC50 value was determined from the data. The same test was performed using HOSE cell (normal ovary cell line) as a comparison target instead of A2780 cell, and IC50 value was determined.

[2] = tested on: HOSE cell (normal ovary cell line); assay: Cell growth inhibitory activity against HOSE cell (comparison target); type: cell-based; settings: cultured 72 hr, sulforhodamine B
Procedure: as §1

SMILES: CC(C)(C)C(C#N)(COc1ccc(C(F)(F)F)cc1)NC(=O)c1ccc(Cl)cc1Cl (racemic) [1-56]
IC50 [1]: 11.4 µM

SMILES: Cn1nc(C(F)(F)F)cc1C(=O)NC(C)(C#N)COc1ccc(Cl)cc1 (racemic) [1-39]
IC50 [1]: 6.97 µM

SMILES: CC(C#N)(COc1ccc(C(F)(F)F)cc1)NC(=O)c1cccc(OC(F)(F)F)c1 (racemic) [1-29]
IC50 [1]: 13.3 µM

SMILES: CC(C#N)(COc1ccc(C(F)(F)F)cc1)NC(=O)c1ccc(C(F)(F)C(F)(F)F)cc1 (racemic) [1-10]
IC50 [2]: 49.4 µM | IC50 [1]: 10.3 µM

SMILES: CC(C#N)(COc1ccc(C#Cc2ccccc2)cc1)NC(=O)c1ccc(C(F)(F)F)cc1 (racemic) [1-25]
IC50 [2]: 15.3 µM | IC50 [1]: 4.53 µM

More lines, main results first:

IC50 [1]: 6.2 µM
SMILES: CC(C)(C)C#Cc1ccc(OCC(C)(C#N)NC(=O)Cc2ccc(C(F)(F)F)cc2)cc1 (stereo not drawn) [2-120]
IC50 [2]: 10.4 µM

IC50 [1]: 8.81 µM
SMILES: CC(C)C(C#N)(COc1ccc(Cl)cc1)NC(=O)Cc1cccc(Cl)c1 (stereo not drawn) [2-27]
IC50 [2]: 15.8 µM

IC50 [1]: 7.22 µM
SMILES: CCCCCCCCOCC(C)(C#N)NC(=O)Cc1ccc(C(F)(F)F)cc1 (stereo not drawn) [4-1]

IC50 [1]: 3.53 µM
SMILES: CC(C#N)(COc1ccc(Cl)cc1)NC(=O)Cc1ccc(SC(F)(F)C(F)(F)C(F)(F)F)cc1 (stereo not drawn) [2-114]
IC50 [2]: 19.9 µM

IC50 [1]: 3.77 µM
SMILES: CC(C#N)(COc1ccc(C(F)(F)F)cc1)NC(=O)Cc1ccc(C(F)(F)C(F)(F)C(F)(F)F)cc1 (stereo not drawn) [2-109]
